Measurements: ChEMBL document CHEMBL1133229, “Parallel synthesis and evaluation of N-(1-phenylethyl)-5-phenyl-imidazole-2-amines as Na+/K+ ATPase inhibitors” (Bioorg Med Chem Lett, 2000)

Each compound was assayed against Sodium/potassium-transporting ATPase (assay: Inhibition of myocardial Na+/K+ ATPase from canine cardiac sarcolemma). Conditions: not given.
Format: protein-complex assay, Canis lupus familiaris
An IC50 of 10 µM was found for C[C@@H](Nc1ncc(-c2ccccc2)n1C)c1ccccc1 in this work. An IC50 of 88 µM was found for CC(Nc1ncc(-c2cc(C(F)(F)F)cc(C(F)(F)F)c2)n1C)c1ccccc1 (centres undefined) in this work. An IC50 of 0.8 µM was found for CCC(Nc1ncc(-c2ccccc2)n1C)c1ccc(Cl)cc1 (centres undefined) in this work. An IC50 of 61 µM was found for C[C@H](Nc1ncc(-c2ccccc2)n1C)c1ccccc1 in this work. An IC50 of 10 µM was found for CC(Nc1ncc(-c2ccccc2)n1C)c1ccc(F)cc1 (centres undefined) in this work. An IC50 of 14 µM was found for CC(Nc1ncc(-c2cccc(-c3ccccc3)c2)n1C)c1ccccc1 (centres undefined) in this work. An IC50 of 77 µM was found for CCC(C)C(Nc1ncc(-c2ccccc2)n1C)c1ccccc1 (centres undefined) in this work. An IC50 of 1.3 µM was found for CC(Nc1ncc(-c2ccccc2)n1C)c1ccc(Cl)cc1 (centres undefined) in this work. An IC50 of 2.1 µM was found for CC(Nc1ncc(-c2ccc3ccccc3c2)n1C)c1ccccc1 (centres undefined) in this work. An IC50 of 99 µM was found for COc1ccc(-c2cnc(NC(C)c3ccccc3)n2C)cc1OC (centres undefined) in this work. An IC50 of 38 µM was found for CC(Nc1ncc(-c2ccccc2)n1C)c1ccccc1 (centres undefined) in this work. An IC50 of 52 µM was found for CC(Nc1ncc(-c2cc(F)cc(F)c2)n1C)c1ccccc1 (centres undefined) in this work. An IC50 of 33 µM was found for CC(Nc1ncc(-c2ccc(OC(F)(F)F)cc2)n1C)c1ccccc1 (centres undefined) in this work.

Organism: Cavia porcellus
Experiment: Compound was evaluated for inotropic activity in guinea pig papillary muscle
Format: functional
Conditions: Muscle tissue
An EC50 of 1 µM was found for COc1cc2c(cc1OC)-c1cnc(NCc3ccccc3)n1CC2 in this work.
